# From PMC6433685, “Histone deacetylase inhibitor LMK235 attenuates vascular constriction and aortic remodelling in hypertension” (Journal of Cellular and Molecular Medicine, 2019)
# Columns and labels:
# [1] = tested on: cyclin D1, E2F3, p21, CaMKIIα mRNA; test: Cell cycle gene and CaMKIIα mRNA (qRT-PCR) in aortas of angiotensin II-infusion mice; assay type: in vivo; conditions: Ang II-infusion mice
# Method: (§1) All animal procedures were approved by the Animal Experimental Committee of Chonnam National University Medical School (CNU IACUC‐H‐2014‐47) and carried out in accordance with the Guide for the Care and Use of Laboratory Animals (US National Institutes of Health Publications, 8th edition, 2011). CD‐1 mice (8 weeks old, 30‐35 g) were used in this study. Hypertension was induced by angiotensin II (Ang II, 1.3 mg/kg/day) infusion using 14‐day micro‐osmotic pumps (Alzet, model 1002; infusion rate of 0.25 μL/h) or saline alone. Ang II osmotic pumps were implanted subcutaneously after the injection of ketamine (120 mg/kg) and xylazine (6.2 mg/kg). One week after Ang II infusion, mice were administered LMK235 (1 or 3 mg/kg/day) or vehicle (dimethylsulphoxide [DMSO]) via intraperitoneal injection for 7 days. Mice were divided into three groups (n = 10‐12 per group): sham + vehicle, Ang II + vehicle, and Ang II + LMK235.
# (§2) Total RNA from aortic tissue was isolated with TRIzol reagent (Invitrogen Life Technologies), and 1 μg of RNA was used for the reverse transcription reaction with TOPscript RT DryMIX (Enzynomics, South Korea). Quantification of mRNA levels was performed with the SYBR Green PCR kit (Enzynomics, South Korea).
# A10 cells [2] = test: MTT cell viability assay in A10 cells; assay type: cell-based, rat; conditions: up to 1000 nmol/L, 24 hours
# Method: A10 vascular smooth muscle cells (VSMCs) were incubated with Dulbecco's modified Eagle medium (DMEM) with 4500 mg/L glucose containing 10% foetal bovine serum (FBS). Passages were carried out every 2 or 3 days. VSMCs were maintained in DMEM in the presence of 10% FBS with low glucose (1000 mg/L). Human umbilical vein endothelial cells (HUVECs) were obtained from Gibco (Waltham, MA, USA). HUVECs were grown in an endothelial cell basal medium (EBM) with EGM‐2 bullet kit (Lonza, Walkersville, MD) and maintained at 37°C under 5% CO2. Cells were cultured for 5‐7 passages.
# Cell viability was tested by the MTT [3‐(4,5‐dimethylthiazol‐2‐yl)‐2,5‐diphenyl tetrazolium bromide] assay. A10 cells were seed into 24‐well culture dishes and serum‐starved overnight. Cells were treated with LMK235 or vehicle for 24 hours at the indicated concentrations. MTT reagent was added to the medium for 2 hours and then dissolved in DMSO, and the absorbance was measured at 570 nm. For assessing cell proliferation, A10 cells were transfected with pCMV‐SPORT6‐CaMKIIα in a dose‐dependent manner. The MTT assay was performed as described above.
# [3] = tested on: angiotensin II‐induced hypertensive mice; test: Systolic BP (tail-cuff) in angiotensin II-infusion mice; assay type: in vivo, CD‐1 mice; conditions: Ang II-infusion mice; 1 mg/kg/day i.p. for 7 days
# Method: as §1
# (§3) Systolic BP was measured by the tail‐cuff method (Visitech Systems, BP‐2000). Animals (mice and rats) were trained to allow for the measuring of BP before administration of the drug. Animals were trained to enter the holder at the same time more than three times a week to measure BP. For angiotensin II‐mice, systolic BP was measured when the mice were awake the day before they are killed. For SHRs, systolic BP was measured daily for 2 weeks.
# HDAC3 = target: T1, HDAC3 (Homo sapiens, UniProt O15379); test: HDAC3 fluorogenic enzyme assay kit (BPS Bioscience), cell-free; assay type: biochemical; conditions: 0.001-10 μmol/L inhibitor
# T1 construct: purchased BPS Bioscience 50063
# T1 sequence (O15379 whole entry): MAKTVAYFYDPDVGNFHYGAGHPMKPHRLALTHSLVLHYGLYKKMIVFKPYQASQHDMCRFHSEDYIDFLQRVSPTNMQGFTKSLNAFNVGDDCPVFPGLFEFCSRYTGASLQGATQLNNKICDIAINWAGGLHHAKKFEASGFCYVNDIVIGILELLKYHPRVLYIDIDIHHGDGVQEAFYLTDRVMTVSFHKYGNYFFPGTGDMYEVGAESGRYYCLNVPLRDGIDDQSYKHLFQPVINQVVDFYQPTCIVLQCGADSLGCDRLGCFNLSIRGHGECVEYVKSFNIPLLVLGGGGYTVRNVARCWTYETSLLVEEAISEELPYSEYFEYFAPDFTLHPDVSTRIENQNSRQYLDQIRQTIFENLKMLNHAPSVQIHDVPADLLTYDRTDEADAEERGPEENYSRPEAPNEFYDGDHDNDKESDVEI
# T1 sequence (Q9Y618 395-489 partner limits assumed): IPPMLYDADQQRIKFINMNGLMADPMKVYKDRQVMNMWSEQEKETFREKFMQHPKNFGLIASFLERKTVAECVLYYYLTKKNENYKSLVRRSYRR
# HDAC7 = target: T2, HDAC7 (Homo sapiens, UniProt Q8WUI4); test: HDAC7 fluorogenic enzyme assay kit (BPS Bioscience), cell-free; assay type: biochemical; conditions: 0.001-10 μmol/L inhibitor
# T2 construct: purchased BPS Bioscience 50067
# T2 sequence (Q8WUI4 whole entry): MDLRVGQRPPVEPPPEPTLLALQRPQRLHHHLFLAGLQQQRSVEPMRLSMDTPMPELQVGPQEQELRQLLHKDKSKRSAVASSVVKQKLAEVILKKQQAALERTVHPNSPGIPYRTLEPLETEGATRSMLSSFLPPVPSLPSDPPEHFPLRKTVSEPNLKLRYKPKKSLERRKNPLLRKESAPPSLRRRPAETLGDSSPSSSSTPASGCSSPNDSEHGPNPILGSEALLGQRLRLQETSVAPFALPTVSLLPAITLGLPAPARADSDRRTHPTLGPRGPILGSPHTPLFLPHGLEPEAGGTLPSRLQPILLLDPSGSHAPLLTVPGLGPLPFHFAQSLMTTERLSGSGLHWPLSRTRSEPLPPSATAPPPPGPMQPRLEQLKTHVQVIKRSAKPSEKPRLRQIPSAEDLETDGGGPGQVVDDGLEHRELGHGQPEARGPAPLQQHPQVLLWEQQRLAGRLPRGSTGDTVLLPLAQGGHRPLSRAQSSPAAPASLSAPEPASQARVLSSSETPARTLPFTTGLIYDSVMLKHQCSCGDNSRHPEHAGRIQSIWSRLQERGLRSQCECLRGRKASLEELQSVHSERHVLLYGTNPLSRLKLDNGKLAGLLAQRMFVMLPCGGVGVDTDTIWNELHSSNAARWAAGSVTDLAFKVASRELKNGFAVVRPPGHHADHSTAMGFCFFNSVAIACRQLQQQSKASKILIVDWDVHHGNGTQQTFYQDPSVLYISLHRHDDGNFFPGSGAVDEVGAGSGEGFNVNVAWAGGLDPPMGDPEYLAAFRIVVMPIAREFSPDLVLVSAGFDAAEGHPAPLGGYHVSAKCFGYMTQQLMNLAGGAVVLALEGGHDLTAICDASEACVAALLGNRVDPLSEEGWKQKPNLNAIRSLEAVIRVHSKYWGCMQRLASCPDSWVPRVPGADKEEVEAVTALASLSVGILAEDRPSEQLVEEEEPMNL
# SHR aortas = test: Aortic wall thickness (H&E) in SHRs; assay type: in vivo, rats
# Source text: For the essential hypertension animal experiment, SHRs were used. The SHR is the most used model animal model for hypertension and is generally regarded as an essential hypertension model.13 SHRs (6 weeks old, approximately 170 g) were purchased from Charles River (Yokohama, Japan). Rats were intraperitoneally administered LMK235 or vehicle every 3 days for 2 weeks (n = 4 per group). The paraffin‐embedded tissues were cut into 3‐μm‐thick sections, deparaffinized with xylene and then rehydrated with graded alcohol. Haematoxylin and eosin (H&E) staining was performed as described, with slight modifications.15 The arterial wall thickness was measured using NIS Elements Software (Nikon, Japan).
# A10 cells [4] = test: Western blot in A10 cells; assay type: cell-based, rat
# Method: Cells were lysed in RIPA lysis buffer [150 mmol/L NaCl, 1% Triton X‐100, 1% sodium deoxycholate, 50 mmol/L Tris‐HCl pH 7.5, 2 mmol/L EDTA, 1 mmol/L PMSF, 1 mmol/L DTT, 1 mmol/L Na3VO4, and 5 mmol/L NaF] with protease inhibitor cocktail and sonicated. Approximately 30 μg of protein was separated by 10% sodium dodecyl sulphate‐polyacrylamide gel electrophoresis (SDS‐PAGE) and transferred to polyvinylidene difluoride (PVDF) membranes. After blocking with 5% skim milk for 1 hour, proteins were incubated with the primary antibodies overnight: anti‐cyclin D1 (1:1000), anti‐HDAC1 (1:1000), anti‐HDAC2 (1:1000), anti‐HDAC4 (1:1000) and anti‐HDAC5 (1:1000). As secondary antibodies, horse radish peroxidase‐linked antimouse or anti‐rabbit antibodies were used. Protein bands were visualized using Immobilon Western Detection Reagents (Millipore, Billerica, MA, USA). The Bio‐ID software was used to quantify protein expression (Vilber Lourmat, Eberhardzell, Germany).
# [5] = tested on: angiotensin II‐infusion mice; test: Aortic wall thickness (H&E) in angiotensin II-infusion mice; assay type: in vivo; conditions: Ang II-infusion mice; 3 mg/kg/day for 1 week
# Method: as §1
# The paraffin‐embedded tissues were cut into 3‐μm‐thick sections, deparaffinized with xylene and then rehydrated with graded alcohol. Haematoxylin and eosin (H&E) staining was performed as described, with slight modifications.15 The arterial wall thickness was measured using NIS Elements Software (Nikon, Japan).
# [6] = tested on: spontaneously hypertensive rats (SHRs); test: Systolic BP (tail-cuff) in spontaneously hypertensive rats; assay type: in vivo
# Method: (§4) For the essential hypertension animal experiment, SHRs were used. The SHR is the most used model animal model for hypertension and is generally regarded as an essential hypertension model.13 SHRs (6 weeks old, approximately 170 g) were purchased from Charles River (Yokohama, Japan). Rats were intraperitoneally administered LMK235 or vehicle every 3 days for 2 weeks (n = 4 per group).
# as §3
# AT1 and ACE1 mRNA = AT1 and ACE1 mRNA (qRT-PCR) in aortas of SHRs; assay type: in vivo, rats
# Method: as §4, §2
# HDAC2 = target: T3, HDAC2 (Homo sapiens, UniProt Q92769); test: HDAC2 fluorogenic enzyme assay kit (BPS Bioscience), cell-free; assay type: biochemical; conditions: 0.001-10 μmol/L inhibitor
# T3 construct: purchased BPS Bioscience 50062
# T3 sequence (Q92769 whole entry): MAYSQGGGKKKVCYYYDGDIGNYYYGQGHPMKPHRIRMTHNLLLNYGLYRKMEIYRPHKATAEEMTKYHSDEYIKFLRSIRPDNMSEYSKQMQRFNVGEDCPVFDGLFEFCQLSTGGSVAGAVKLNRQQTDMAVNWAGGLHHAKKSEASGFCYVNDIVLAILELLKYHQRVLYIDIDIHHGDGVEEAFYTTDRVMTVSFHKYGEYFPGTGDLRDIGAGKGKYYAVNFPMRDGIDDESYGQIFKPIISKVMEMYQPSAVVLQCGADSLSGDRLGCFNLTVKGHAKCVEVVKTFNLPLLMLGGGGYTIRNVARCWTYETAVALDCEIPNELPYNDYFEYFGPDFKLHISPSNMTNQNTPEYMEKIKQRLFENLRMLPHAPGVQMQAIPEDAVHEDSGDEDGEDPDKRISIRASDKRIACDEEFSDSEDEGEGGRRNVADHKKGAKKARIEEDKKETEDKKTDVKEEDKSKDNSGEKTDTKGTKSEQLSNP
smiles,measurement,setting,value
Cc1cc(C)cc(C(=O)NOCCCCCC(=O)NO)c1 [LMK235],CaMKIIα mRNA levels in aorta,[1],significantly reduced
same,E2F3 mRNA levels in aorta,[1],significantly suppressed
same,cyclin D1 mRNA levels in aorta,[1],significantly suppressed
same,p21 transcript levels in aorta,[1],restored the repressed p21 expression
same,cell viability (MTT),A10 cells [2],not affected
same,systolic BP,[3],sufficient to lower systolic BP
same,IC50,HDAC3,37 nM
same,IC50,HDAC7,> 20000 nM
same,aortic wall thickness,SHR aortas,reduced
same,protein expression of class I and IIa/b HDAC,"A10 cells [4]; A10 cells without CaMKIIα transfection, 18 h",reduced protein expression
same,CaMKIIα-induced cyclin D1 protein,A10 cells [4]; CaMKIIα-transfected A10 cells,reduced
same,HDAC4 and HDAC5 proteins,A10 cells [4]; CaMKIIα-transfected A10 cells,significantly reduced
same,protein expression of HDAC1 and HDAC2,"A10 cells [4]; CaMKIIα-transfected A10 cells, 18 h",significantly reduced
same,aortic wall thickness,[5],completely inhibited the increased aortic wall thickness
same,hypertension lowering effect,[6]; 1 mg/kg/day (data not shown),did not exhibit a hypertension lowering effect
same,duration of BP lowering effect,[6]; 3 mg/kg i.p. every 3 days,2 days
same,systolic BP,"[6]; 3 mg/kg i.p. every 3 days, 2 days after treatment",significantly lowered
same,systolic BP,"[6]; 3 mg/kg i.p. every 3 days, 3 days after administration",restored to a comparable level
same,AT1 mRNA levels in aorta,AT1 and ACE1 mRNA,not affected
same,IC50,HDAC2,55 nM
